Results reported in patent US10385069B2, “Imidazo[2,1-B]thiazole and 5,6-dihydroimidazo[2,1-B]thiazole derivatives useful as S100-inhibitors” (Active Biotech AB, priority 2015, dated 2019).

Target: T1, interaction between biotinylated human S100A9 and human RAGE-Fc (Homo sapiens, UniProt P06702)
T1 construct: made in house; host or cells: E. coli
T1 sequence (P06702 1-114): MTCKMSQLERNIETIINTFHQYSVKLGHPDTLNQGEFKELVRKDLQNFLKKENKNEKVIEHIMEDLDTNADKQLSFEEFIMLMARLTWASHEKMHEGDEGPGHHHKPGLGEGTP
Assay: AlphaScreen inhibition assay, biot-hS100A9:hRAGE-Fc
Type: binding
Conditions: biot-hS100A9 pre-incubated with compound 1 h, assay buffer with CaCl2 and ZnCl2
Procedure, shortened: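 Biotinylated human S100A9, preincubated with compound, binds human RAGE-Fc on protein A Acceptor beads in HBS-P with CaCl2 and ZnCl2; streptavidin Donor beads added, AlphaScreen signal read. Protein levels set by cross-titration; beads 20 μg/mL final. Percent inhibition versus DMSO control; IC50 from varied compound concentrations.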

SMILES	IC50
O=C(O)c1cn2c(n1)sc1cc(Br)ccc12 [Example 13, 10-Bromo-7-thia-2,5-diazatricyclo[6.4.0.0^2,6]dodeca-1(8),3,5,9,11-pentaene-4-carboxylic acid]	1300 nM
CC(=O)NCc1c(C(=O)O)nc2sc3c(n12)CCC(C(C)(C)C)C3 (stereo not drawn) [Example 255, 10-tert-Butyl-3-(acetamidomethyl)-7-thia-2,5-diazatricyclo[6.4.0.0^2,6]dodeca-1(8),3,5-triene-4-carboxylic acid]	1150 nM
O=C(O)c1cn2c(n1)sc1ccc(Cl)cc12 [Example 12, 11-Chloro-7-thia-2,5-diazatricyclo[6.4.0.0^2,6]dodeca-1(8),3,5,9,11-pentaene-4-carboxylic acid]	5610 nM
CC(C)(C)C1CCc2c(sc3nc(C(=O)O)c(CO)n23)C1 (stereo not drawn) [Example 256, 10-tert-Butyl-3-(hydroxymethyl)-7-thia-2,5-diazatricyclo[6.4.0.0^2,6]dodeca-1(8),3,5-triene-4-carboxylic acid]	500 nM
O=C(O)C1CN2C(=N1)Sc1c2ccc(Cl)c1Cl (stereo not drawn) [Example 185, 9,10-Dichloro-7-thia-2,5-diazatricyclo[6.4.0.0^2,6]dodeca-1(8),5,9,11-tetraene-4-carboxylic acid]	450 nM
O=C(O)c1cn2c(n1)sc1c(Cl)c(OC(F)(F)F)ccc12 [Example 214, 9-Chloro-10-(trifluoromethoxy)-7-thia-2,5-diazatricyclo[6.4.0.0^2,6]dodeca-1(8),3,5,9,11-pentaene-4-carboxylic acid]	640 nM
O=C(O)C(O)c1cn2c(n1)sc1c(Cl)c(Cl)ccc12 (stereo not drawn) [Example 188, 2-{9,10-Dichloro-7-thia-2,5-diazatricyclo[6.4.0.0^2,6]dodeca-1(8),3,5,9,11-pentaen-4-yl}-2-hydroxyacetic acid]	2190 nM
CC1(C)Cc2c(sc3nc(C(=O)O)cn23)C(C)(C)C1 [Example 32, 9,9,11,11-Tetramethyl-7-thia-2,5-diazatricyclo[6.4.0.0^2,6]dodeca-1(8),3,5-triene-4-carboxylic acid]	320 nM
O=C(O)C1CN2C(=N1)Sc1c2ccc(F)c1Cl (stereo not drawn) [Example 228, 9-Chloro-10-fluoro-7-thia-2,5-diazatricyclo[6.4.0.0^2,6]dodeca-1(8),5,9,11-tetraene-4-carboxylic acid]	260 nM
O=C(O)c1cn2c(n1)sc1cc(OC(F)(F)F)ccc12 [Example 4, 10-(Trifluoromethoxy)-7-thia-2,5-diazatricyclo[6.4.0.0^2,6]dodeca-1(8),3,5,9,11-pentaene-4-carboxylic acid]	1160 nM

Results, then the molecule that gave them:

IC50	SMILES
1800 nM	O=C(O)c1nc2sc3c(Cl)c(F)ccc3n2c1C1CNC1 [Example 281, 3-(Azetidin-3-yl)-9-chloro-10-fluoro-7-thia-2,5-diazatricyclo[6.4.0.0^2,6]dodeca-1(8),3,5,9,11-pentaene-4-carboxylic acid]
940 nM	CN1CC(c2c(C(=O)O)nc3sc4c(Cl)c(F)ccc4n23)C1 [Example 290, 9-Chloro-10-fluoro-3-(1-methylazetidin-3-yl)-7-thia-2,5-diazatricyclo[6.4.0.0^2,6]dodeca-1(8),3,5,9,11-pentaene-4-carboxylic acid]
690 nM	CC(C)CC1(C(=O)O)CN2C(=N1)Sc1c2ccc(F)c1Cl (stereo not drawn) [Example 249, 9-Chloro-10-fluoro-4-(2-methylpropyl)-7-thia-2,5-diazatricyclo[6.4.0.0^2,6]dodeca-1(8),5,9,11-tetraene-4-carboxylic acid]
640 nM	CC(C)(C)C1CCc2c(sc3nc(C(=O)NC#N)cn23)C1 (stereo not drawn) [Example 58, 10-tert-Butyl-N-cyano-7-thia-2,5-diazatricyclo[6.4.0.0^2,6]dodeca-1(8),3,5-triene-4-carboxamide]
1680 nM	CC(C)(C)C1CCc2c(sc3nc(C(=O)O)c(Br)n23)C1 (stereo not drawn) [Example 253, 3-Bromo-10-tert-butyl-7-thia-2,5-diazatricyclo[6.4.0.0^2,6]dodeca-1(8),3,5-triene-4-carboxylic acid]
820 nM	O=C(O)c1cn2c(n1)sc1c(F)c(Cl)c(OCCN3CCOCC3)cc12 [Example 289, 10-Chloro-9-fluoro-11-[2-(morpholin-4-yl)ethoxy]-7-thia-2,5-diazatricyclo[6.4.0.0^2,6]dodeca-1(8),3,5,9,11-pentaene-4-carboxylic acid]
210 nM	O=C(O)c1cn2c(n1)sc1c(Cl)c(Br)ccc12 [Example 243, 10-Bromo-9-chloro-7-thia-2,5-diazatricyclo[6.4.0.0^2,6]dodeca-1(8),3,5,9,11-pentaene-4-carboxylic acid]
830 nM	CC1(C)CCc2sc3nc(C(=O)O)cn3c2C1 [Example 38, 11,11-Dimethyl-7-thia-2,5-diazatricyclo[6.4.0.0^2,6]dodeca-1(8),3,5-triene-4-carboxylic acid]
1680 nM	COc1ccc(-c2c(C(=O)O)nc3sc4c(n23)CCC(C(C)(C)C)C4)cc1 (stereo not drawn) [Example 190, 10-tert-Butyl-3-(4-methoxyphenyl)-7-thia-2,5-diazatricyclo[6.4.0.0^2,6]dodeca-1(8),3,5-triene-4-carboxylic acid]
950 nM	O=C(O)c1cn2c(n1)sc1c(Cl)c(N3CC(F)(F)C3)ccc12 [Example 266, 9-Chloro-10-(3,3-difluoroazetidin-1-yl)-7-thia-2,5-diazatricyclo[6.4.0.0^2,6]dodeca-1(8),3,5,9,11-pentaene-4-carboxylic acid]
1040 nM	CC(C)(C)C1CCc2c(sc3nc(C(=O)O)c(NCc4ccccc4)n23)C1 (stereo not drawn) [Example 42, 3-(Benzylamino)-10-tert-butyl-7-thia-2,5-diazatricyclo[6.4.0.0^2,6]dodeca-1(8),3,5-triene-4-carboxylic acid]
